Broadly, the MIC is the lowest concentration found to suppress growth.

≈ marks a conversion by molar mass, not a printed value. Where a SMILES comes first, the peptide text is derived from it. Bridges are numbered along the chain shown (N, C = ends). [ ]: non-standard residue; d: D form. The star is where a group is joined. Ileψ(thiazoline)Cys = CC[C@H](C)[C@H](N)C1=N[C@H](C(=O)*)CS1; dOrn = NCCC[C@@H](N)C(=O)O

The subject of one test is MRSA 01ST018. In words: Degree of synergy (Bliss independence model). It counts as cell-based, Staphylococcus aureus. The settings on record: antibiotic ¼×MIC in combination with 7,10-EODA 15.6 μg/mL (⅛×MIC); 24 hours; MRSA 018. The protocol: (§1) Interactions of the selected antibiotic or 7,10-EODA of the present invention were evaluated using the checker board method (Nair et al. 2015). […] To obtain various concentrations of 7,10-EODA and antibiotic combination, a 2-fold dilution of the beta-lactam antibiotic was placed on the same plate. About 10^5 CFU/mL of microorganisms to be tested was added to the wells of each plate, and cultured for 24 hours at 37° C. without shaking. At the end of the culture period, cell growth was measured at OD600 using a spectrophotometer. Each 7,10-EODA and antibiotic combination was repeated at least three times. MIC was identified at the lowest concentration of antibiotics with growth inhibition of 90% or higher. FICAB means fractional inhibitory concentration (FIC) of drug A in the presence of drug B, and FICBA means fractional inhibitory concentration (FIC) of drug B in the presence of drug A. The fractional inhibitory concentration index (FICI) represents the sum of the FIC values of the interacting antibiotics. Interactions are based on FICI values, with FICIs less than 0.5 being categorized as synergy, FICIs 0.5 to 4 being indifferent, and FICIs greater than 4 being antagonistic. The degree of synergy was also measured based on the conventional Bliss independence model of synergy (Morones-Ramirez et al. 2013). Specifically, the degree of synergy was calculated by the following equation: S indicates degree of synergy, fAB indicates bacterial growth (optical density) when 7,10-EODA and antibiotics are used in combination, fA0 and f0B represent bacterial growth for antibiotic alone or 7,10-EODA single treatment, respectively. f00 represents bacterial growth in the absence of drug. The degree of synergy is divided into three categories based on the S value, where 0 means neutral, greater than 0 means synergism, and less than 0 means antagonism. S=(fA0/f00)(f0B/f00)−(fAB/f00)
(§2) The results are illustrated in FIG. 10. […]

The test system of test [1] is MDRSA 01ST001. The test can be described thus: Degree of synergy (Bliss independence model). Conditions: antibiotic ¼×MIC in combination with 7,10-EODA 15.6 μg/mL (⅛×MIC), 24 hours. Type of test: cell-based, Staphylococcus aureus. The protocol:
as §1, §2

Test [2] deals with Staphylococcus aureus ATCC 29213. In words: Minimal inhibitory concentration (MIC), broth microdilution per CLSI. It counts as cell-based. The settings on record: Staphylococcus aureus, ATCC29213; strain 29213 (ATCC 29213); antibiotic alone; read-out: MIC. On the procedure: The minimum inhibitory concentration (MIC) of antibiotics and the activity of 7,10-EODA of the present invention against Staphylococcus aureus strains were measured according to the CLSI guideline (CLSI document M100-517, 2007). Specifically, each antibiotic or 7,10-EODA was diluted 2-fold (200-0.97 μg/mL) by adding MHB (Mueller-Hinton Broth) to a 96-well microtiter plate. In the mid-exponential phase (0.5 OD600), the culture was diluted 10-fold with MHB and 0.1 mL aliquots of the diluent were added to wells containing the serially diluted test reagent and cultured at 37° C. for 12 hours. About the end of the culture period, the cell density was measured at an optical density of 600 nm (OD600) using a […].
(§3) Specifically, the minimal inhibitory concentration (MIC) was measured according to the method of Experimental Example 4 above, and the degree of inhibition (Agar diffusion analysis) (zone of inhibition; ZOI) was measured according to the method of Experimental Example 5 above.
(Broth dilution looks for growth in wells or tubes with falling amounts of substance.)

For test [3] the test system is unchanged. In words: Agar disk diffusion analysis, zone of inhibition (ZOI). It counts as cell-based. The settings on record: strain 29213; for ZOI without 7.10-EODA: antibiotic ½×MIC alone; for ZOI with 7.10-EODA: antibiotic ½×MIC with 7,10-EODA ¼×MIC. On the procedure: (§4) For synergy effect screening, a 0.1 mL aliquot of MRSA or MSSA strain (5×10^5 CFU/mL) cultured in a log-phase on TSA plates was inoculated. […] A disk including DMSO alone or 7,10-EODA alone (¼×MIC) was used as a control group. The plates were cultured under conditions of […] and 24 hours, and a synergistic effect was observed when the disk periphery including both antibiotic and 7,10-EODA was at least 5 mm in zone of inhibition (ZOI).
as §3
Background: In agar diffusion tests the substance spreads into inoculated agar from a disc or well.

The test system is the same in test [4]. The test can be described thus: Antimicrobial activity on solid medium (clear zone around filter paper). Type of test: cell-based. Conditions: FIG. 3. On the procedure:
(§5) First, 1.5% of potato agar was added to the YDP medium, sterilized, and then an agar plate hardened by pouring about 20 ml in a plastic Petri dish was used. MRSA 01ST001 was diluted to about 107/ml, and then about 500 μl was dispersed evenly on the agar plate.
(§6) The size of the clear zone around the filter paper shown after the culture at 37° C. for 2 to 3 days after the inoculation was measured to confirm the degree of antimicrobial activity. At this time, vancomycin 100 μg, oxacillin 100 μg, ampicillin 100 μg, streptomycin 100 μg, and penicillin 100 μg were used as control groups.
(§7) The antimicrobial activity can be confirmed with the degree showing the clear zone on the agar plate. It is judged that the larger the clear zone, the higher the antimicrobial activity. The results are illustrated in FIG. 1 and FIG. 2.
(§8) The results are illustrated in FIG. 3. The experiment was carried out in the same manner as in Example 1-2.

Test [5] concerns MRSA 01ST001 (MDRSA 01ST001). Described as above. The settings on record: for clear zone on agar plate: 100 μg per filter paper, 37° C., 2 to 3 days, FIG. 1. Type of test: cell-based, Staphylococcus aureus. On the procedure: as §5, §6, §7, §8
The test system of test [6] is MDRSA 01ST001. The test can be described thus: Agar disk diffusion analysis, zone of inhibition (ZOI). Type of test: cell-based, Staphylococcus aureus. The settings on record: for antimicrobial activity, disk diffusion: 100 μg each, FIG. 4; for antimicrobial activity effect in combination with 7,10-EODA: antibiotic treated in combination with 7,10-EODA, Table 1 summary; for ZOI without 7.10-EODA / ZOI with 7.10-EODA: strain 001; for ZOI without 7.10-EODA: antibiotic ½×MIC alone; for ZOI with 7.10-EODA: antibiotic ½×MIC with 7,10-EODA ¼×MIC. The protocol: as §4
Specifically, in order to compare the antimicrobial activity of the 7,10-EODA or the antibiotic of the present invention against the MDRSA 01ST001 strain, the MDRSA 01ST001 strain was treated with the 7,10-EODA (E 100 μg) of the present invention, streptomycin (S, 100 μg), ampicillin (A, 100 μg), oxacillin (O, 100 μg), vancomycin (V, 100 μg), or penicillin (P, 100 μg), according to the method described in Experimental Example 5.
as §3

Test [7] relates to MDRSA 01ST001. The test can be described thus: Minimal inhibitory concentration (MIC), broth microdilution per CLSI. Conditions: Staphylococcus aureus.
Another test relates to S. typhimurium KCTC 2515. In words: Checker board synergy evaluation (MIC, FICI). It counts as cell-based, Salmonella typhimurium. Conditions: Salmonella enterica, 24 h; strain 2515; single agent. The protocol:
as §1, with “S=(fA0/f00)(f0B/f00)−(fAB/f00) […]” for “S=(fA0/f00)(f0B/f00)−(fAB/f00)”

The next test relates to MRSA strain 165. The test can be described thus: Checker board synergy evaluation (MIC, FICI). Conditions: Staphylococcus aureus, 24 h, strain 165, single agent, read-out: MIC. Type of test: cell-based. On the procedure: as §1
(§9) The antimicrobial activity synergistic effects according to the combination treatment of 7,10-EODA and each antibiotic on methicillin-resistant Staphylococcus aureus (MRSA) strains 085, 093, 120, 136, and 165, MDRSA 01ST001, which is a multidrug-resistant Staphylococcus aureus (MDRSA) strain, E. coli ATCC 8739, and S. typhimurium KCTC 2515 were confirmed. […] Fractional inhibitory concentration indices (FICI) values accordingly were confirmed.

A further test concerns MRSA strain 136. The test can be described thus: Checker board synergy evaluation (MIC, FICI). It counts as cell-based. The settings on record: Staphylococcus aureus, 24 h, strain 136, single agent, read-out: MIC. On the procedure: as §1, §9
For a further test, the system named is MRSA strain 120. In words: Checker board synergy evaluation (MIC, FICI). Conditions: Staphylococcus aureus, 24 h, strain 120, single agent, read-out: MIC. Type of test: cell-based. On the procedure:
as §1, §9

For a further test, the system named is E. coli ATCC 8739. The test can be described thus: Checker board synergy evaluation (MIC, FICI). It counts as cell-based. Conditions: Escherichia coli, ATCC8739, 24 h; strain 8739; single agent. On the procedure: as §1, §9
The subject of the next test is MRSA strain 085. The test can be described thus: Checker board synergy evaluation (MIC, FICI). Type of test: cell-based. The settings on record: Staphylococcus aureus, 24 h, strain 085, single agent, read-out: MIC. On the procedure: as §1, §9
For test [8], the system named is MDRSA 01ST001. The test can be described thus: Checker board synergy evaluation (MIC, FICI). Type of test: cell-based. The settings on record: Staphylococcus aureus, 24 h; strain 001; single agent. The protocol: as §1, §9
The test system of the next test is MRSA strain 093. The test can be described thus: Checker board synergy evaluation (MIC, FICI). It counts as cell-based. The settings on record: Staphylococcus aureus, 24 h, strain 093, single agent, read-out: MIC. On the procedure: as §1, §9

As to gentamicin, the synergy index in the test with MRSA 01ST018 was 1.32; in the test with MDRSA 01ST001 [1], 1.37.

As for `Cc1onc(-c2ccccc2)c1C(=O)N[C@@H]1C(=O)N2[C@@H]1SC(C)(C)[C@@H]2C(=O)O` [OXA, oxacillin], the minimum inhibitory concentration (MIC) in test [2] turned out to be 0.04 µg/mL (≈ 0.0996 µM); in the test with MDRSA 01ST001 [7], 62.5 µg/mL (≈ 156 µM); in the test on S. typhimurium KCTC 2515, 250 µg/mL; in the test on MRSA strain 165 it was 31.2 µg/mL; in the test with MRSA strain 136, 62.5 µg/mL; with MRSA strain 120, 250 µg/mL. For the same molecule, the minimum inhibitory concentration (MIC) is 200 µg/mL with E. coli ATCC 8739, 250 µg/mL with MRSA strain 085, 62.5 µg/mL with MDRSA 01ST001 [8] and 2000 µg/mL with MRSA strain 093. For the same molecule, the figures for the “ZOI without 7.10-EODA” value (in [3]; in the test with MDRSA 01ST001 [6]) were 8.3 ± 0.1 mm and 6.0 ± 0.1 mm, respectively. Moreover, the figures for the “ZOI with 7.10-EODA” value (in [3]; in the test on MDRSA 01ST001 [6]) were 9.60 mm and 14.1 mm, respectively. Further, the “antimicrobial activity on solid medium” value was “high antimicrobial activity” in test [4] and “did not show an antimicrobial activity” in [5] (MDRSA 01ST001, FIG. 3). The “clear zone on agar plate” value in test [5] was “no clear zone appeared”. Besides, in the test on MDRSA 01ST001 [6], the “antimicrobial activity, disk diffusion” value is recorded as “resistant”. In addition, the “antimicrobial activity effect in combination with 7,10-EODA” value in the test on MDRSA 01ST001 [6] is reported as “strong antimicrobial activity effect”.

Take `CC[C@H](C)[C@H](N)C1=N[C@H](C(=O)N[C@@H](CC(C)C)C(=O)N[C@H](CCC(=O)O)C(=O)N[C@H](C(=O)N[C@H]2CCCCNC(=O)[C@H](CC(N)=O)NC(=O)[C@@H](CC(=O)O)NC(=O)[C@H](Cc3cnc[nH]3)NC(=O)[C@@H](Cc3ccccc3)NC(=O)[C@H]([C@@H](C)CC)NC(=O)[C@@H](CCCN)NC2=O)[C@@H](C)CC)CS1` [bacitracin] ({Ileψ(thiazoline)Cys}-L[dE]IK[dOrn]I[dF]H[dD]N; lactam 4-C): the synergy index with MDRSA 01ST001 [1] was found to be 0.8.

In the case of `CC1(C)S[C@@H]2[C@H](NC(=O)[C@H](N)c3ccccc3)C(=O)N2[C@H]1C(=O)O` [AMP, ampicillin], the minimum inhibitory concentration (MIC) is 1.97 µg/mL (≈ 5.64 µM) in [2]; 1000 µg/mL (≈ 2860 µM) in the test on MDRSA 01ST001 [7]; 0.6 µg/mL in the test with S. typhimurium KCTC 2515; 2000 µg/mL with MRSA strain 165; 1000 µg/mL in the test on MRSA strain 136; 250 µg/mL in the test on MRSA strain 120. In addition, the minimum inhibitory concentration (MIC) with E. coli ATCC 8739 is 0.6 µg/mL; with MRSA strain 085 it was 1000 µg/mL; in the test on MDRSA 01ST001 [8], 1000 µg/mL; in the test on MRSA strain 093 it was 31.2 µg/mL. The “ZOI without 7.10-EODA” value is 16.9 ± 0.3 mm in [3] and 7.3 ± 0.2 mm in the test on MDRSA 01ST001 [6]. The “ZOI with 7.10-EODA” value in [3] is given as 17.0 mm; in the test with MDRSA 01ST001 [6], 14.2 mm. Also, the “clear zone on agar plate” value in test [5] is given as “no clear zone appeared”. The “antimicrobial activity, disk diffusion” value in the test on MDRSA 01ST001 [6] was “resistant”. In the test with MDRSA 01ST001 [6], the “antimicrobial activity effect in combination with 7,10-EODA” value is “strong antimicrobial activity effect”.

Values taken from patent US10695314B2, “Antimicrobial composition containing 7,10-epoxyoctadeca-7,9-dienoic acid as active ingredient” (priority 2016, dated 2020).
